Measured values published in patent US20210190799A1, “METHOD FOR DIAGNOSING LIVER DISEASES AND METHOD FOR SCREENING THERAPEUTIC AGENT FOR LIVER DISEASES USING CHANGES IN EXPRESSION OF TM4SF5 PROTEIN” (SEOUL NATIONAL UNIVERSITY R&DB FOUNDATION, priority 2017, published 2021).
Positions count from the first letter of the chain named.

Key:
[1] = tested on: liver tissue; experiment: Liver disease mouse model induced by carbon tetrachloride (CCl4); type: in vivo, BALB/C mice
Experimental: First, a mouse model in which liver disease was induced by intraperitoneally injecting carbon tetrachloride (CCl4) once a week for 1, 4 or 16 weeks at the concentration of 1 mg/kg to 4-week-old BALB/C mice (Orient Bio, Korea) was prepared.
On the other hand, after administering CCl4 to the TM4SF5 gene KO mouse prepared in Example <7-1> as described above, the liver tissue was obtained and Mason's trichrome staining was performed, and the results are shown in FIG. 22C. As a result, it was confirmed that the accumulation of collagen was decreased in the TM4SF5 gene KO mouse compared to the control group (FIG. 22C).

[2] = target: T1, c-Src protein (Mus musculus, UniProt P05480); experiment: Western blotting of separated liver tissue of the liver disease model mouse treated with c-Src inhibitor PP2 or control PP3; type: cell-based; details: FIG. 26C
T1 construct: from tissue; host or cells: liver tissue / hepatocytes of CCl4-treated BALB/C mice
Experimental: Particularly, a lysis buffer [50 mM Tris-HCl (pH 7.4), 1% NP40, 0.25% sodium dioxycholate, 150 mM NaCl, 1 mM EDTA], SDS (sodium dodecyl sulfate), Na3O4V and protease inhibitor cocktail (GenDepot) were added to the obtained liver tissue, which was left at 4° C. for 15 minutes to lyse the tissue. The lysate was centrifuged for 30 minutes under the conditions of 13,000 rpm and 4° C. to obtain a supernatant. The proteins present in the supernatant were quantified using BCA reagent (Thermo Scientifics). 4× sample buffer [4 ml of 100% glycerol, 2.4 ml of Tris-HCl (pH 6.8), 0.8 g of SDS, 4 mg of brominated phenol blue, 0.4 ml of β-mercaptoethanol and 3.1 ml of H2O, final volume: 10 ml] was added thereto, which was boiled at 100° C. for 5 minutes. SDS-PAGE was performed, and the proteins were transferred to a nitrocellulose membrane (Whatman). The membrane was pretreated in a solution containing 5% skim milk for 1 hour, and reacted with the antibodies against laminin (Abcam, UK), ACC1 (Cell Signalling, USA), SREBP1 precursor (Santa cruz, USA), mature SREBP1 (Santa cruz, USA), MTP (Santa cruz, USA), PPARα (Santa cruz, USA), pY^706STAT3 (Millipore, USA), STAT3 (Santa cruz, USA), α-tubulin (Sigma, USA) and TM4SF5 (J Clin Invest. 2008 April; 118(4): 1354-66) as the primary antibodies at 4° C. for 15 hours. […]

[3] = target: T2, TM4SF5 protein (Homo sapiens, UniProt O14894); experiment: [3H]-arginine binding to precipitated TM4SF5 protein (liquid scintillation)
T2 construct: in addition to the wild type of TM4SF5 protein (WT, full length); made in house; host or cells: HEK293FT cells, transient transfection with PEI, pull-down on streptavidin-coated beads
T2 sequence (O14894 1-197): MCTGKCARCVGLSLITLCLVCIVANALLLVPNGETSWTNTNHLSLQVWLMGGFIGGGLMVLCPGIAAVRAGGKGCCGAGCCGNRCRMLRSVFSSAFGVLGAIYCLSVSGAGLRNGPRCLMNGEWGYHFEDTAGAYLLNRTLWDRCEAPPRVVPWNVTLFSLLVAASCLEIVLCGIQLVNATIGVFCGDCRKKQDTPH
Experimental: (§1) First, HEK293FT cells (Thermo, USA) were prepared by culturing in 5% CO2 at 37° C. using DMEM containing 10% FBS and antibiotics. The prepared cells were distributed in 150 mm plates and cultured to the density of 60%, which were transfected with the construct expressing TM4SF5, MetaP2, Castrol, TM4SF1, TM4SF4 and TM4SF5 proteins constructed in Example 11 using PEI. Two days after the transfection, the desired protein was precipitated under the same conditions and methods as described in Example 11 using the beads coated with streptavidin. The precipitate was added with 10 μM [3H]-arginine (American radiolabeled chemicals, USA), followed by reaction at 4° C. for 1 hour. At this time, a sample in which 10 mM of L-arginine was added to the same amount of beads was used as the control. Upon completion of the reaction, the beads were washed 3 times with lysis buffer, to which 2 m ? of scintillation cocktail (Ultima gold, Perkin Elmer, USA) was added. The mixture was vortexed and analyzed using a liquid scintillation counter (Tri-Carb, Perkin Elmer, USA).
An experiment was performed to confirm whether the binding of TM4SF5 protein and arginine confirmed in Example <12-2> was concentration-dependent. The experiment was performed under the same conditions and methods as described in Example <12-2>, except that HEK293FT cells transformed with TM4SF5 protein were used and 0, 0.01, 0.05. 0.1 or 0.5 mM L-arginine was added.

[4] = target: T3, Castor1 protein (Homo sapiens, UniProt Q8WTX7); experiment: [3H]-arginine binding to precipitated Castor1 protein
T3 construct: made in house; host or cells: HEK293FT cells, transient transfection with PEI, pull-down on streptavidin-coated beads
T3 sequence (Q8WTX7 1-329): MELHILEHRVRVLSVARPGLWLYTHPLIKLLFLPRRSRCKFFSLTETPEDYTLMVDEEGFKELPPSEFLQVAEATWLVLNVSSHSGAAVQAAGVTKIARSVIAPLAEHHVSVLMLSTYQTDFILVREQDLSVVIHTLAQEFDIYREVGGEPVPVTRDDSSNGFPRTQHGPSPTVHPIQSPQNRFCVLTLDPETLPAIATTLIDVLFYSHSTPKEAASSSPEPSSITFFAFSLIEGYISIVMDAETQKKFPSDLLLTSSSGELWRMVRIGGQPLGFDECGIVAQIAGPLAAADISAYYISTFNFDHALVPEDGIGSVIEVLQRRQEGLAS
Experimental: as §1

[5] = target: T4, short extracellular loop (SEL) mutant of TM4SF5 protein (Homo sapiens, UniProt O14894); experiment: Arginine binding to short extracellular loop (SEL) mutant of TM4SF5; details: FIG. 15F
T4 construct: a short extracellular loop (SEL) fragment mutant comprising the 31st to 42nd amino acid residues from the N-terminus; made in house
Experimental: as §1
(§2) First, a short extracellular loop (SEL) fragment mutant comprising the 31st to 42nd amino acid residues from the N-terminus of the amino acid sequence constituting TM4SF5 protein (SEQ. ID. NO: 1) and a long extracellular loop (LEL) fragment mutant comprising the 113th to 157th amino acid residues from the N-terminus were prepared. […]

[6] = target: T5, TM4SF5 mutant, 124th to 129th amino acid residues (Homo sapiens, UniProt O14894, E129A/F128S/G125A/H127A/W124A/Y126S); experiment: Arginine binding to TM4SF5 mutants of the 124th to 129th amino acid residues; details: FIG. 15G
T5 construct: made in house
T5 sequence (O14894 1-197 W124A/G125A/Y126S/H127A/F128S/E129A): T2 sequence (O14894 1-197) with W124A, G125A, Y126S, H127A, F128S, E129A
Experimental: as §1, §2

[7] = High arginine diet for 10 weeks: body weight and liver fat (H&E); type: in vivo, mouse; details: for weight gain compared to the mouse fed a normal diet: high arginine diet 10 weeks, FIG. 17A
Experimental: Particularly, the TM4SF5 gene KO mouse prepared in Example <7-1> was fed L-arginine (40 g/kg of mouse body weight) for 10 weeks.
The liver tissue was extracted from the TM4SF5 gene KO mouse fed a high arginine diet in Example <13-1>, and H&E staining was performed using the method described above.

[8] = tested on: liver tissue; experiment: Liver cancer induced by injecting diethylnitrosamine (DEN); type: in vivo; details: transgenic mouse
Experimental: The exacerbation process of liver disease was confirmed using the transgenic mouse as follows. Particularly, the transgenic mouse was induced with liver cancer by injecting diethylnitrosamine (DEN). The liver tissue was extracted from the mouse, and H&E staining was performed. As a result, it was confirmed that liver cancer was induced (FIG. 31A). It was also confirmed that the phosphorylation of STAT3 protein and the expression of laminin were increased as the expression of TM4SF5 protein increased (FIG. 31B).

[9] = tested on: STAT3 phosphorylation and laminin protein expression; experiment: Western blotting of separated liver tissue of the liver disease model mouse treated with IL-6; type: cell-based; details: FIG. 26A
Experimental: Particularly, a lysis buffer [50 mM Tris-HCl (pH 7.4), 1% NP40, 0.25% sodium dioxycholate, 150 mM NaCl, 1 mM EDTA], SDS (sodium dodecyl sulfate), Na3O4V and protease inhibitor cocktail (GenDepot) were added to the obtained liver tissue, which was left at 4° C. for 15 minutes to lyse the tissue. The lysate was centrifuged for 30 minutes under the conditions of 13,000 rpm and 4° C. to obtain a supernatant. The proteins present in the supernatant were quantified using BCA reagent (Thermo Scientifics). 4× sample buffer [4 ml of 100% glycerol, 2.4 ml of Tris-HCl (pH 6.8), 0.8 g of SDS, 4 mg of brominated phenol blue, 0.4 ml of β-mercaptoethanol and 3.1 ml of H2O, final volume: 10 ml] was added thereto, which was boiled at 100° C. for 5 minutes. SDS-PAGE was performed, and the proteins were transferred to a nitrocellulose membrane (Whatman). The membrane was pretreated in a solution containing 5% skim milk for 1 hour, and reacted with the antibodies against laminin (Abcam, UK), ACC1 (Cell Signalling, USA), SREBP1 precursor (Santa cruz, USA), mature SREBP1 (Santa cruz, USA), MTP (Santa cruz, USA), PPARα (Santa cruz, USA), pY^706STAT3 (Millipore, USA), STAT3 (Santa cruz, USA), α-tubulin (Sigma, USA) and TM4SF5 (J Clin Invest. 2008 April; 118(4): 1354-66) as the primary antibodies at 4° C. for 15 hours. Then, the membrane was reacted with the secondary antibody, and developed on an X-ray film using an ECL solution (Pierce, USA).
In addition, the separated liver tissue was treated with IL-6 and Western blotting was performed as described above to confirm whether the increased STAT3 phosphorylation and laminin protein expression were dependent on IL-6. […] Therefore, it was confirmed that the expressions of laminin and laminin γ2 were increased depending on TM4SF5 protein.

[10] = tested on: fat-related genes; experiment: Real-time PCR of fat-related genes in normal hepatocytes treated with IL-6; type: cell-based, C57BL/6 normal mouse; details: FIGS. 4B and 4C
[11] = tested on: SOCS3 gene; experiment: SOCS3 shRNA in primary hepatocytes, Western blotting; type: cell-based, mouse; details: FIG. 8E
Excerpt: The primary hepatocytes isolated from the normal mouse (52 weeks old) were transfected with SOCS3 (NM_174466) shRNA (shSOCS3, sense 5′ […]-3′ SEQ. ID. NO: 111; antisense 5′ […]-3′ SEQ. ID. NO: 112) under the same conditions and methods as described in Example <4-1> to prepare hepatocytes wherein the expression of SOCS3 gene was suppressed, and the expression changes of SREBP1 and SOCS3 proteins and the phosphorylation changes of STAT3 were confirmed by Western blotting.

[12] = administered for 4 or 16 weeks, FIG. 22A
[13] = primary hepatic epithelial cells

In the case of `ClC(Cl)(Cl)Cl` [CCl4, carbon tetrachloride], the “expression of TM4SF5 protein, phosphorylation of STAT3 protein and level of ECM in the liver tissue” value ([1]; FIG. 23A) is reported as “all increased”, the “accumulation of collagen, Mason's trichrome staining” value ([1]; TM4SF5 gene KO mouse compared to the control group, FIG. 22C) is reported as “decreased” and the “cells in the liver tissue, H&E and Mason's trichrome staining” value [1, 12] is reported as “died”. The “collagen between the cells” value [1, 12] was “accumulated” and the “mRNA levels of elastin, laminin α2, α3, α5, γ2, and γ3 chains versus control group not treated” value ([1]; administered for 4 or 16 weeks, FIG. 23B) was “higher”.

With `CC(C)(C)n1nc(-c2ccc(Cl)cc2)c2c(N)ncnc21` [PP2] the “expression of laminin protein” value [2] was “suppressed” and the “phosphorylation of STAT3 protein” value [2] was “suppressed”.

In the case of `N=C(N)NCCC[C@H](N)C(=O)O` [arginine, L-arginine], the “concentration dependence of binding to TM4SF5 protein” value ([3]; 0, 0.01, 0.05, 0.1 or 0.5 mM L-arginine, FIGS. 15D and 15E) is reported as “concentration-dependently”, the “binding to TM4SF5 protein” value ([3]; 10 μM [3H]-arginine, 4° C., 1 hour, FIGS. 15B and 15C) is reported as “directly bound” and the “binding of TM4SF5 compared with control protein MetaP2” value ([3]; FIG. 15B) is reported as “more strongly”. The “binding of TM4SF5 compared with TM4SF1 or TM4SF4” value ([3]; FIG. 15C) was “more strongly”, the “binding of Castor1 compared with control protein MetaP2” value ([4]; FIG. 15B) was “more strongly” and the “binding to Castor1 protein” value ([4]; FIGS. 15B and 15C) was “directly bound”. The “binding to SEL mutant of TM4SF5 protein” value [5] was “not bound”, the “binding to TM4SF5 mutant of 124th to 129th residues” value [6] was “not bound” and the “weight gain of each mouse in comparison to the starting point of the high arginine diet” value ([7]; TM4SF5 gene KO mouse, FIG. 17B) was “significantly decreased”. For the same compound, the “fat accumulation in the liver tissue, H&E staining” value ([7]; TM4SF5 gene KO mouse, FIG. 17C) was “relatively suppressed”, the “weight gain compared to the mouse fed a normal diet” value ([7]; TM4SF5 gene KO mouse) was “about 7%” and the “fatty liver, H&E staining of liver tissue” value ([7]; normal mouse, FIG. 17C) was “fatty liver was induced”. For the same compound, the “weight gain compared to the mouse fed a normal diet” value ([7]; normal mouse) was “about 25%”.

With `CCN(CC)N=O` [diethylnitrosamine] the “liver cancer, H&E staining” value ([8]; FIG. 31A) was “induced” and the “phosphorylation of STAT3 protein and expression of laminin” value ([8]; FIG. 31B) was “increased”.

For “IL-6: a cytokine associated with fatty liver”, the “expression of collagen 1” value [9] was “increased”, the “level of laminin protein” value [9] was “not changed” and the “phosphorylation of STAT3 protein” value [9] was “increased”. The “expressions of Srebp1, Srebp2, Fasn, CD36, Fabp1, Vldlr and Ldlr, the fat-related genes” value [10] was “increased”.

In the case of “shSOCS3: SOCS3 shRNA, SEQ. ID. NO: 111 (sense) and 112 (antisense) (sense CAACAUCUCUGUCGGAAGAUU; antisense UCUUCCGACAGAGAUGUUGUU; listed as RNA, chemistry not given here)”, the “amount of SREBP1 protein” value [11, 13] is reported as “decreases”, the “phosphorylation of STAT3 protein” value [11, 13] is reported as “increases” and the “expression of SOCS3 gene” value ([11]; primary hepatocytes) is reported as “decreased”.
